Reference: the Deep4Chem optical property database
Each block holds one molecule with its values, some of them ahead of it.

Experiment: solvent given as SMILES

absorption maximum (in ClCCl): 435 nm
SMILES: CCCCN(CCCC)c1ccc(C#Cc2cc(C#Cc3ccc(N(CCCC)CCCC)cc3)c(C#Cc3ccc(C#N)cc3)cc2C#Cc2ccc(C#N)cc2)cc1

absorption maximum (in CC#N): 355 nm
absorption maximum (in CCCCCC): 359 nm
absorption maximum (in CO): 346 nm
absorption maximum (in CS(C)=O): 366 nm
absorption maximum (in ClC(Cl)Cl): 353 nm
SMILES: C/C(=N\Nc1ccc(C#N)cc1)c1cccc(/C(C)=N/Nc2ccc(C#N)cc2)c1

absorption maximum (in ClCCl): 438 nm
SMILES: CCCCN(CCCC)c1ccc(C#Cc2cc(C#Cc3ccc(N(CCCC)CCCC)cc3)c(C#Cc3c(F)c(F)c(F)c(F)c3F)cc2C#Cc2c(F)c(F)c(F)c(F)c2F)cc1

absorption maximum (in CC#N): 380 nm
SMILES: Cc1cccc2nc3[nH]c(=O)[nH]c(=O)c3nc12

absorption maximum (in C1CCOC1): 361 nm
absorption maximum (in CC#N): 368 nm
absorption maximum (in CCCCCC): 336 nm
absorption maximum (in CCO): 368 nm
absorption maximum (in CCOC(C)=O): 361 nm
absorption maximum (in CS(C)=O): 369 nm
absorption maximum (in ClCCl): 368 nm
absorption maximum (in O): 368 nm
SMILES: CCCCCCCCCCCCOc1cc2cc(N(C)C)ccc2cc1C#N

absorption maximum (in CCOC(C)=O): 296 nm
SMILES: CCn1c(-c2ccc(N(c3ccccc3)c3cccc4ccccc34)cc2)c(-c2ccc3ccccc3c2)c(-c2ccc3ccccc3c2)c1-c1ccc(N(c2ccccc2)c2cccc3ccccc23)cc1

absorption maximum (in C1COCCO1): 444 nm
absorption maximum (in CC#N): 444 nm
absorption maximum (in CCCCOCCCC): 444 nm
absorption maximum (in CCOC(C)=O): 443 nm
SMILES: c1ccc(Nc2nc(Nc3ccccc3)nc(Nc3ccc4c5cccc6cccc(c7cccc3c74)c65)n2)cc1

absorption maximum (in ClCCl): 366 nm
SMILES: CCCCc1cc2c3c(c1)-c1ccccc1B(c1c(C)cc(C)cc1C)N3B(c1c(C)cc(C)cc1C)c1ccccc1-2

absorption maximum (in C1COCCO1): 393 nm
SMILES: COc1ccc(C2=N/C(=C\c3ccc(C#N)cc3)C(=O)O2)cc1OC

absorption maximum (in CO): 312 nm
SMILES: O=C(O)c1ccc(-c2nc(-c3ccccc3)c(-c3ccccc3)[nH]2)cc1

absorption maximum (in CC#N): 343 nm
SMILES: Cc1ccc(-c2ccc(/C=C/c3ccc(C#N)cc3)cn2)nc1

absorption maximum (in ClCCl): 532 nm
SMILES: CC1=C(c2ccccc2)C(C)=[N+]2C1=C(c1c(-c3ccccn3)nc3ccccn13)c1c(C)cc(C)n1[B-]2(F)F

absorption maximum (in CC#N): 347 nm
absorption maximum (in ClCCl): 365 nm
SMILES: Cc1ccc(-c2cc(C)[o+]c(C)c2)cc1

absorption maximum (in C1CCCCC1): 360 nm
SMILES: C1=Cc2ccc3ccccc3c2NB1c1ccccc1

absorption maximum (in CC#N): 459 nm
SMILES: CCN(CC)c1ccc2cc(/C=C/c3ccc([N+](=O)[O-])cc3)c(=O)oc2c1

absorption maximum (in ClCCl): 372 nm
SMILES: c1ccc(N(c2ccccc2)c2ccc(-c3ccc4c(c3)C3(c5ccccc5Oc5ccccc53)c3cc(-c5ccc(N(c6ccccc6)c6ccccc6)cc5)ccc3-4)cc2)cc1

absorption maximum (in ClC(Cl)Cl): 487 nm
SMILES: N#Cc1nc(N(Cc2ccccc2I)Cc2ccccc2I)c(C#N)nc1N(Cc1ccccc1I)Cc1ccccc1I

absorption maximum (in C1CCOC1): 440 nm
SMILES: COc1cc2c(cc1-c1ccc(N(C)C)cc1)Cc1c3c(c4c(c1-2)-c1cc(OC)c(-c2ccc(N(C)C)cc2)cc1C4)C(=O)N(CCC(C)C)C3=O

absorption maximum (in C1CCOC1): 521 nm
SMILES: CCCCCCc1ccsc1-c1cc2c3cc(-c4sccc4CCCCCC)c4nc(C(F)(F)C(F)(F)C(F)(F)F)nc5c(-c6sccc6CCCCCC)cc(c6cc(-c7sccc7CCCCCC)c7nc(C(F)(F)C(F)(F)C(F)(F)F)nc1c7c26)c3c45

absorption maximum (in C1CCOC1): 411 nm
SMILES: O=c1oc2cccc3c4cccc5ccc6c7cc(F)ccc7c1c(c23)c6c54

absorption maximum (in CC1CCCCC1): 293 nm
absorption maximum (in CC#N): 285 nm
absorption maximum (in CCCCCCC): 293 nm
absorption maximum (in CCO): 286 nm
absorption maximum (in CN(C)C=O): 284 nm
absorption maximum (in ClC(Cl)Cl): 285 nm
absorption maximum (in O): 280 nm
SMILES: c1cc(N2CCCC2)ccn1

absorption maximum (in C1CCOC1): 445 nm
SMILES: Cc1cc(C)c([B-]2(c3c(C)cc(C)cc3C)[O+]=P(c3ccccc3)(c3ccccc3)c3cc(-c4ccc(N(C)C)cc4)sc3-c3sc(-c4ccc(N(C)C)cc4)cc32)c(C)c1

absorption maximum (in ClCCl): 410 nm
SMILES: CCCCN(CCCC)c1ccc(C#Cc2cc(C#Cc3cc(C(F)(F)F)cc(C(F)(F)F)c3)c(C#Cc3cc(C(F)(F)F)cc(C(F)(F)F)c3)cc2C#Cc2ccc(N(CCCC)CCCC)cc2)cc1

absorption maximum (in CC#N): 358 nm
absorption maximum (in ClCCl): 361 nm
SMILES: Cc1cc(O)c(C(=O)/C=C/c2ccc([N+](=O)[O-])cc2)c(=O)o1

absorption maximum (in CCO): 378 nm
SMILES: COc1cc2c(cc1F)c(=O)c1cc(F)c(OC)cc1n2-c1ccccc1

absorption maximum (in CC#N): 440 nm
absorption maximum (in ClCCl): 448 nm
SMILES: CC(=O)c1cc(=O)n(C)c2cc(-c3ccc(N(C)C)cc3)sc12

absorption maximum (in CC#N): 367 nm
absorption maximum (in ClCCl): 374 nm
SMILES: Cc1cc(O)c(C(=O)/C=C/c2cccc(O)c2)c(=O)o1

absorption maximum (in CS(C)=O): 404 nm
SMILES: N#Cc1c(/C=C/c2ccc(N(c3ccccc3)c3ccccc3)cc2)cc(-c2cccs2)cc1N1CCCCC1

Continued, molecule first:

SMILES: CC1=C(c2ccc(-c3nc(-c4ccccc4)c(-c4ccccc4)[nH]3)cc2)S[C@]2(C)C1=C1C(=C3c4ccccc4C(C)[C@]32C)C(F)(F)C(F)(F)C1(F)F (stereo not given in full)
absorption maximum (in C1CCOC1): 589 nm

SMILES: c1ccc(N(c2ccccc2)c2ccc3c(c2)-c2ccccc2C32c3ccccc3-n3c4ccccc4c4cccc2c43)cc1 (stereo not given)
absorption maximum (in ClCCl): 354 nm

SMILES: CC1(C)c2ccccc2N(c2cccc(S(=O)(=O)c3cccc(N4c5ccccc5C(C)(C)c5ccccc54)c3)c2)c2ccccc21
absorption maximum (in C1CCOC1): 281 nm
absorption maximum (in Cc1ccccc1): 301 nm
absorption maximum (in ClC(Cl)Cl): 287 nm

SMILES: CN(C)c1cccc2c1C(=O)c1ccccc1-2
absorption maximum (in C1CCCCC1): 433 nm
absorption maximum (in CC#N): 444 nm
absorption maximum (in CCO): 449 nm
absorption maximum (in c1ccccc1): 445 nm

SMILES: COc1cc2sc3nc(-c4ccccc4OC)sc3c2cc1OC
absorption maximum (in CS(C)=O): 365 nm

SMILES: c1ccc(-c2nc(-c3ccc(N4c5ccccc5C(c5ccccc5)(c5ccccc5)c5ccccc54)cc3)cc(-c3ccc(N4c5ccccc5C(c5ccccc5)(c5ccccc5)c5ccccc54)cc3)n2)cc1
absorption maximum (in Cc1ccccc1): 373 nm

SMILES: c1ccc(-n2c(-c3cccc4ccccc34)nc3c4ccccc4c4ccccc4c32)cc1
absorption maximum (in Cc1ccccc1): 356 nm

SMILES: Cc1ccc(N(c2ccc(C)cc2)c2ccc(-c3cc4c(cc(-c5ccc(N(c6ccc(C)cc6)c6ccc(C)cc6)cc5)c5nsnc54)c4nsnc34)cc2)cc1
absorption maximum (in Cc1ccccc1): 520 nm
absorption maximum (in ClCCl): 518 nm

SMILES: CC(C)[Si](C#Cc1c2ccccc2c(C#C[Si](C(C)C)(C(C)C)C(C)C)c2nc3cc4c(cc3nc12)C1c2ccccc2C4c2ccccc21)(C(C)C)C(C)C
absorption maximum (in CCCCCC): 558 nm
absorption maximum (in ClCCl): 562 nm

SMILES: C1=CC2=CC=CC3C=c4c(cc5cccc6cccc4c65)C(=C1)C23 (stereo not given)
absorption maximum (in ClCCl): 543 nm

SMILES: CCCCn1c(-c2ccc(-c3ccc(-c4ccc(-c5n(CCCC)c6cc(C)ccc6[n+]5CCCC)cc4)cc3)cc2)[n+](CCCC)c2ccc(C)cc21
absorption maximum (in O): 304 nm

SMILES: COc1cc(OC)cc(C2=[O+][B-](F)(F)OC(c3ccccc3)=C2)c1
absorption maximum (in ClCCl): 369 nm

SMILES: CCn1c2cc(C(C)(C)C)ccc2c2c3nsnc3c3c4ccc(C(C)(C)C)cc4n(CC)c3c21
absorption maximum (in CN(C)C=O): 430 nm
absorption maximum (in Cc1ccccc1): 425 nm
absorption maximum (in ClCCl): 430 nm

SMILES: CC1=CC(C)=[N+]2C1=C(c1ccccc1)c1c(C)cc(/C=C/c3ccccc3)n1[B-]2(F)F
absorption maximum (in CC#N): 560 nm

SMILES: Cc1ccc2nc(-c3cc(-c4nc5ccc(C)cc5[nH]4)cc(-c4nc5ccc(C)cc5[nH]4)c3)[nH]c2c1
absorption maximum (in CS(C)=O): 322.8 nm

SMILES: O=S1(=O)c2ccccc2Oc2cc(N3c4ccccc4C4(c5ccccc53)c3ccccc3N(c3ccc5c(c3)Oc3ccccc3S5(=O)=O)c3ccccc34)ccc21
absorption maximum (in Cc1ccccc1): 359.89 nm

SMILES: CC(C)(C)c1ccc2c(c1)c1cc(C(C)(C)C)ccc1n2-c1ccc(-c2ccc3c(c2)C(=O)c2ccc(-c4ccc(-n5c6ccc(C(C)(C)C)cc6c6cc(C(C)(C)C)ccc65)cc4)cc2C3=O)cc1
absorption maximum (in Cc1ccccc1): 426 nm

SMILES: Cc1ccc(C2=C3C=CC(Sc4ccccc4)=[N+]3[B-](F)(F)n3c(Sc4ccccc4)ccc32)cc1
absorption maximum (in C1CCOC1): 577 nm

SMILES: O=C([O-])c1cc2c(ccc3ccccc32)oc1=O
absorption maximum (in O): 360 nm

SMILES: CCC1(CC)c2cc(C#Cc3cccs3)ccc2-c2c1c1c(c3c2C(CC)(CC)c2cc(C#Cc4cccs4)ccc2-3)C(CC)(CC)c2cc(C#Cc3cccs3)ccc2-1
absorption maximum (in C1CCOC1): 362 nm

SMILES: CN(C)c1ccc(C2=Cc3ccccc3P2(=O)c2ccccc2)cc1 (stereo not given)
absorption maximum (in ClCCl): 413 nm

SMILES: CC(C)(C)c1ccc2c(c1)c1cc(C(C)(C)C)ccc1n2-c1cccc(-c2nc(-c3cccc(P(=O)(c4ccccc4)c4ccccc4)c3)nc(-c3cccc(P(=O)(c4ccccc4)c4ccccc4)c3)n2)c1
absorption maximum (in C1CCOC1): 343 nm
absorption maximum (in CC#N): 343 nm
absorption maximum (in CC(C)=O): 343 nm
absorption maximum (in CN(C)C=O): 343 nm
absorption maximum (in Cc1ccccc1): 343 nm
absorption maximum (in ClC(Cl)Cl): 343 nm
absorption maximum (in ClCCl): 343 nm

SMILES: CC(=O)c1c2c(cc3cc(N(C)C)ccc13)CCC2
absorption maximum (in C1CCCCC1): 363 nm
absorption maximum (in C1CCOC1): 370 nm
absorption maximum (in C1COCCO1): 370 nm
absorption maximum (in CC#N): 370 nm
absorption maximum (in CCO): 374 nm
absorption maximum (in CS(C)=O): 374 nm
absorption maximum (in Cc1ccccc1): 368 nm
absorption maximum (in ClC(Cl)Cl): 373 nm
absorption maximum (in ClCCl): 372 nm

SMILES: CCCCCCN1C(=O)c2cccc3c(-c4ccc(-c5cc(-c6ccccc6)n(-c6ccccc6)n5)s4)ccc(c23)C1=O
absorption maximum (in ClCCl): 400 nm

SMILES: O=c1c2cc(F)c(O)cc2sc2cc(O)c(F)cc12
absorption maximum (in CCO): 377 nm

SMILES: CC(C)(C)c1ccc(C2=CC3=C(c4ccccc4)c4cc(-c5ccc(C(C)(C)C)cc5)c(-c5ccc(C(C)(C)C)cc5)n4[B-](F)(F)[N+]3=C2c2ccc(C(C)(C)C)cc2)cc1
absorption maximum (in C1CCCCC1): 602 nm
absorption maximum (in C1CCOC1): 601 nm
absorption maximum (in CC#N): 590 nm
absorption maximum (in Cc1ccccc1): 605 nm
absorption maximum (in ClCCl): 598 nm

SMILES: c1ccc(N(c2ccccc2)c2ccc(-c3cccc4nc5ccccc5cc34)cc2)cc1
absorption maximum (in C1CCOC1): 391 nm
absorption maximum (in CC#N): 390 nm
absorption maximum (in CC(C)OC(C)C): 389 nm
absorption maximum (in CCCCCC): 386 nm
absorption maximum (in CCCCOCCCC): 390 nm
absorption maximum (in CCN(CC)CC): 389 nm
absorption maximum (in CCOC(C)=O): 390 nm
absorption maximum (in CCOCC): 386 nm
absorption maximum (in CN(C)C=O): 390 nm
absorption maximum (in ClCCl): 396 nm
